Source: the NIST ThermoML archive (doi:10.1016/j.fluid.2014.07.036)
± gives the expanded uncertainty stated by the source.

Test: refractive index (other wavelength) (dimensionless); xn = mol fraction of the nth substance listed
Settings: 85 kPa, Liquid, Wavelength=632.8 nm, minimum deviation angle

CCCCCCCC[n+]1ccn(C)c1.F[B-](F)(F)F [1-methyl-3-octylimidazolium tetrafluoroborate] + CCCCCO
Settings | refractive index
281.39 K, x1 = 0.012 | 1.4139 ± 0.0003
281.39 K, x1 = 0.339 | 1.4262 ± 0.0003
282.13 K, x1 = 0.014 | 1.4137 ± 0.0003
282.13 K, x1 = 0.33 | 1.4257 ± 0.0003
282.87 K, x1 = 0.015 | 1.4135 ± 0.0003
282.87 K, x1 = 0.32 | 1.4252 ± 0.0003
283.57 K, x1 = 0.018 | 1.4134 ± 0.0003
283.57 K, x1 = 0.315 | 1.4248 ± 0.0003
284.24 K, x1 = 0.019 | 1.4132 ± 0.0003
284.24 K, x1 = 0.305 | 1.4243 ± 0.0003
284.89 K, x1 = 0.02 | 1.413 ± 0.0003
284.89 K, x1 = 0.295 | 1.4238 ± 0.0003
285.51 K, x1 = 0.021 | 1.4128 ± 0.0003
285.51 K, x1 = 0.285 | 1.4233 ± 0.0003
286.09 K, x1 = 0.021 | 1.4126 ± 0.0003
286.09 K, x1 = 0.278 | 1.4229 ± 0.0003
286.64 K, x1 = 0.023 | 1.4125 ± 0.0003
286.64 K, x1 = 0.268 | 1.4224 ± 0.0003
287.13 K, x1 = 0.025 | 1.4124 ± 0.0003
287.13 K, x1 = 0.257 | 1.4219 ± 0.0003
287.58 K, x1 = 0.026 | 1.4123 ± 0.0003
287.58 K, x1 = 0.246 | 1.4214 ± 0.0003
287.98 K, x1 = 0.029 | 1.4123 ± 0.0003
287.98 K, x1 = 0.238 | 1.421 ± 0.0003
288.34 K, x1 = 0.03 | 1.4122 ± 0.0003
288.34 K, x1 = 0.23 | 1.4206 ± 0.0003
288.64 K, x1 = 0.032 | 1.4122 ± 0.0003
288.64 K, x1 = 0.224 | 1.4203 ± 0.0003
288.88 K, x1 = 0.034 | 1.4122 ± 0.0003
288.88 K, x1 = 0.217 | 1.42 ± 0.0003
289.09 K, x1 = 0.035 | 1.4122 ± 0.0003
289.09 K, x1 = 0.214 | 1.4198 ± 0.0002
289.29 K, x1 = 0.038 | 1.4123 ± 0.0003
289.29 K, x1 = 0.207 | 1.4195 ± 0.0003
289.44 K, x1 = 0.039 | 1.4123 ± 0.0003
289.44 K, x1 = 0.203 | 1.4193 ± 0.0002
289.63 K, x1 = 0.041 | 1.4123 ± 0.0003
289.63 K, x1 = 0.196 | 1.419 ± 0.0002
289.73 K, x1 = 0.042 | 1.4123 ± 0.0003
289.73 K, x1 = 0.191 | 1.4188 ± 0.0002
289.86 K, x1 = 0.044 | 1.4124 ± 0.0003
289.86 K, x1 = 0.19 | 1.4187 ± 0.0003
289.98 K, x1 = 0.047 | 1.4125 ± 0.0003
289.98 K, x1 = 0.186 | 1.4185 ± 0.0002
290.07 K, x1 = 0.05 | 1.4126 ± 0.0003
290.07 K, x1 = 0.181 | 1.4183 ± 0.0003
290.16 K, x1 = 0.052 | 1.4127 ± 0.0003
290.16 K, x1 = 0.179 | 1.4182 ± 0.0003
290.25 K, x1 = 0.055 | 1.4128 ± 0.0003
290.25 K, x1 = 0.175 | 1.418 ± 0.0003
290.31 K, x1 = 0.059 | 1.413 ± 0.0003
290.31 K, x1 = 0.173 | 1.4179 ± 0.0002
290.38 K, x1 = 0.062 | 1.4131 ± 0.0003
290.38 K, x1 = 0.168 | 1.4177 ± 0.0002
290.43 K, x1 = 0.066 | 1.4133 ± 0.0003
290.43 K, x1 = 0.166 | 1.4176 ± 0.0003
290.49 K, x1 = 0.069 | 1.4134 ± 0.0003
290.49 K, x1 = 0.161 | 1.4174 ± 0.0003
290.49 K, x1 = 0.598 | 1.4284 ± 0.0002
290.5 K, x1 = 1 | 1.4338 ± 0.0003
290.52 K, x1 = 0.071 | 1.4135 ± 0.0003
290.52 K, x1 = 0.156 | 1.4172 ± 0.0003
290.56 K, x1 = 0.076 | 1.4137 ± 0.0003
290.56 K, x1 = 0.1 | 1.4148 ± 0.0002
290.56 K, x1 = 0.151 | 1.417 ± 0.0003
290.59 K, x1 = 0.797 | 1.4313 ± 0.0003
290.59 K, x1 = 0.898 | 1.4327 ± 0.0003
290.6 K, x1 = 0.078 | 1.4138 ± 0.0003
290.6 K, x1 = 0.147 | 1.4168 ± 0.0003
290.61 K, x1 = 0.08 | 1.4139 ± 0.0003
290.61 K, x1 = 0.144 | 1.4167 ± 0.0003
290.65 K, x1 = 0.085 | 1.4141 ± 0.0003
290.65 K, x1 = 0.137 | 1.4164 ± 0.0003
290.66 K, x1 = 0.087 | 1.4142 ± 0.0003
290.66 K, x1 = 0.132 | 1.4162 ± 0.0003
290.67 K, x1 = 0.089 | 1.4143 ± 0.0003
290.67 K, x1 = 0.091 | 1.4144 ± 0.0003
290.67 K, x1 = 0.128 | 1.416 ± 0.0003
290.67 K, x1 = 0.13 | 1.4161 ± 0.0003
290.67 K, x1 = 0.697 | 1.4299 ± 0.0003
290.68 K, x1 = 0.094 | 1.4145 ± 0.0003
290.68 K, x1 = 0.096 | 1.4146 ± 0.0003
290.68 K, x1 = 0.098 | 1.4147 ± 0.0003
290.68 K, x1 = 0.118 | 1.4156 ± 0.0003
290.68 K, x1 = 0.121 | 1.4157 ± 0.0003
290.68 K, x1 = 0.123 | 1.4158 ± 0.0003
290.68 K, x1 = 0.125 | 1.4159 ± 0.0003
290.76 K, x1 = 0.498 | 1.4264 ± 0.0002
290.93 K, x1 = 0.396 | 1.4243 ± 0.0002
290.95 K, x1 = 0.2 | 1.4185 ± 0.0002
291.87 K, x1 = 1 | 1.4334 ± 0.0003
292.22 K, x1 = 0.898 | 1.4322 ± 0.0003
292.28 K, x1 = 0.598 | 1.4279 ± 0.0002
292.3 K, x1 = 0.797 | 1.4308 ± 0.0003
292.33 K, x1 = 0.498 | 1.4259 ± 0.0002
292.39 K, x1 = 0.697 | 1.4294 ± 0.0003
292.67 K, x1 = 0.396 | 1.4237 ± 0.0002
292.68 K, x1 = 0.2 | 1.4179 ± 0.0002
292.95 K, x1 = 0.1 | 1.414 ± 0.0002
293.43 K, x1 = 1 | 1.433 ± 0.0003
294.01 K, x1 = 0.498 | 1.4253 ± 0.0002
294.06 K, x1 = 0.898 | 1.4317 ± 0.0003
294.07 K, x1 = 0.598 | 1.4273 ± 0.0002
294.09 K, x1 = 0.797 | 1.4303 ± 0.0003
294.12 K, x1 = 0.697 | 1.4289 ± 0.0003
294.44 K, x1 = 0.396 | 1.423 ± 0.0002
294.76 K, x1 = 0.2 | 1.4171 ± 0.0002
295.04 K, x1 = 0.1 | 1.4132 ± 0.0002
295.05 K, x1 = 1 | 1.4325 ± 0.0003
295.73 K, x1 = 0.498 | 1.4248 ± 0.0002
295.84 K, x1 = 0.598 | 1.4268 ± 0.0002
295.89 K, x1 = 0.898 | 1.4312 ± 0.0003
295.91 K, x1 = 0.797 | 1.4299 ± 0.0003
295.92 K, x1 = 0.697 | 1.4283 ± 0.0003
296.31 K, x1 = 0.396 | 1.4224 ± 0.0002
296.55 K, x1 = 0.2 | 1.4165 ± 0.0002
296.68 K, x1 = 1 | 1.4321 ± 0.0003
297.32 K, x1 = 0.1 | 1.4124 ± 0.0002
297.61 K, x1 = 0.797 | 1.4294 ± 0.0003
297.68 K, x1 = 0.697 | 1.4278 ± 0.0003
297.69 K, x1 = 0.498 | 1.4241 ± 0.0002
297.71 K, x1 = 0.598 | 1.4262 ± 0.0002
297.84 K, x1 = 0.898 | 1.4306 ± 0.0003
298.31 K, x1 = 0.396 | 1.4217 ± 0.0002
298.41 K, x1 = 1 | 1.4316 ± 0.0003
298.67 K, x1 = 0.2 | 1.4158 ± 0.0002
299.26 K, x1 = 0.1 | 1.4116 ± 0.0002
299.58 K, x1 = 0.697 | 1.4273 ± 0.0003
299.58 K, x1 = 0.797 | 1.4288 ± 0.0003
299.74 K, x1 = 0.498 | 1.4235 ± 0.0002
299.74 K, x1 = 0.598 | 1.4256 ± 0.0002
299.92 K, x1 = 0.898 | 1.43 ± 0.0003
300.25 K, x1 = 1 | 1.4311 ± 0.0003
300.61 K, x1 = 0.396 | 1.4209 ± 0.0002
300.68 K, x1 = 0.2 | 1.4151 ± 0.0002
301.73 K, x1 = 0.1 | 1.4107 ± 0.0002
302.04 K, x1 = 1 | 1.4305 ± 0.0003

CCCCCCO [hexan-1-ol] + CCCCCCCC[n+]1ccn(C)c1.F[B-](F)(F)F
x2 = 0
Settings | refractive index
293.99 K | 1.4165 ± 0.0002
295.93 K | 1.4156 ± 0.0002
297.36 K | 1.4151 ± 0.0002
298.94 K | 1.4145 ± 0.0002
300.69 K | 1.4138 ± 0.0002
303.34 K | 1.4128 ± 0.0002
304.77 K | 1.4122 ± 0.0002
306.24 K | 1.4117 ± 0.0002

CCCCCO [pentan-1-ol] + CCCCCCCC[n+]1ccn(C)c1.F[B-](F)(F)F
x2 = 0
Settings | refractive index
290.68 K | 1.4096 ± 0.0002
292.95 K | 1.4087 ± 0.0002
295.03 K | 1.4079 ± 0.0002
297.17 K | 1.4071 ± 0.0002
299.35 K | 1.4062 ± 0.0002
301.73 K | 1.4053 ± 0.0002
